The values that follow come from PubChem BioAssay AID686917 (Sanford-Burnham Center for Chemical Genomics, 2013).

The structures appear in SMILES notation. pIC50: −log10 of the molar value. Several values for one entry are separate records, joined by “and”; a condition that tells them apart may be missing. Equal entries are not always repeated. Activity calls are given as the source filed them.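 The calls were made as follows: active = IC50 at or below 100 µM in the confirmatory dose response; inactive = the rest.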

In the experiment the target is 26S proteasome non-ATPase regulatory subunit 14 (Homo sapiens) (UniProt O00487). The experiment can be described thus: inhibition of proteasome Rpn11 deubiquitination – biochemical, fluorescence polarization, human 26S proteasome, uHTS hits, dose response (AID 686917). As to conditions: purified human 26S proteasome, Ub4-pepOG fluorescence polarization. Background: In fluorescence polarisation assays a small probe gives low polarisation when free and higher when bound to something large.
Sequence of 26S proteasome non-ATPase regulatory subunit 14 (Homo sapiens) (O00487 whole entry, looked up): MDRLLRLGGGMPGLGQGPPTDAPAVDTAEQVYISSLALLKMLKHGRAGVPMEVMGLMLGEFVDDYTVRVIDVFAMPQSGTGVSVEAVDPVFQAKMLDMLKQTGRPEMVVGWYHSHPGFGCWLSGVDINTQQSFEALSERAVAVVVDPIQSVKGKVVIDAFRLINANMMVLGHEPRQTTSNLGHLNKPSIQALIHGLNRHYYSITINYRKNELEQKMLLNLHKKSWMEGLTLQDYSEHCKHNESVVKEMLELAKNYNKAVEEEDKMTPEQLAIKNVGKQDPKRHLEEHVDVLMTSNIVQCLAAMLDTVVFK
The term pIC50 denotes the negative decadic logarithm of the IC50, by convention in mol/L. As to `CC[C@@H](C)[C@H](NC(=O)c1cnc2c(SSc3cccc4cc(C(=O)N[C@H](C(=O)O)[C@H](C)CC)cnc34)cccc2c1)C(=O)O`, the pIC50 was 5.74.

Take `O=C(Sc1cccc2cccnc12)c1ccc(C(F)(F)F)cc1`: the pIC50 is 5.43. As for `O=C(Sc1cccc2cccnc12)c1cccc2ccccc12`, the pIC50 was 5.40. In the case of `CC(C)C[C@H](NC(=O)c1cnc2c(SSc3cccc4cc(C(=O)N[C@@H](CC(C)C)C(=O)O)cnc34)cccc2c1)C(=O)O`, the pIC50 is 5.60. As to `O=C(Sc1cccc2cccnc12)c1ccc(F)c(F)c1`, the pIC50 was 5.43. As a reminder, the IC50 is the point on the concentration scale where inhibition reaches its midpoint. With `N#Cc1ccc(C(=O)Sc2cccc3cccnc23)cc1`, the IC50 is > 99 µM (inactive). As to `O=C(Sc1cccc2cccnc12)c1ccc(F)cc1F`, the pIC50 is 5.01. On the same count and under the same terms, then `COc1ccc(C(=O)Sc2cccc3cccnc23)cc1`, with 5.36; and `COC(=O)[C@H](CO)NC(=O)c1cnc2c(SSc3cccc4cc(C(=O)N[C@@H](CO)C(=O)OC)cnc34)cccc2c1`, with 5.31; and `O=C(Sc1cccc2cccnc12)c1ccccc1`, with 5.28. On to `O=C(Sc1cccc2cccnc12)c1ccccc1I`, for which the pIC50 is 5.66. For the compound `CCOc1ccccc1C(=O)Sc1cccc2cccnc12`, the pIC50 is 5.43 and 4.84. Regarding `O=C(Sc1cccc2cccnc12)c1ccc([N+](=O)[O-])cc1`, the pIC50 is 5.00. Take `O=C(Sc1cccc2cccnc12)c1ccc2c(c1)OCO2`: the pIC50 is 4.85. For `COC(=O)[C@H](CC(C)C)NC(=O)c1cnc2c(SSc3cccc4cc(C(=O)N[C@@H](CC(C)C)C(=O)OC)cnc34)cccc2c1`, the pIC50 was 5.27. For the compound `O=C(Sc1cccc2cccnc12)c1ccc(F)cc1`, the pIC50 is 5.27. In the case of `COc1ccc(C(=O)Sc2cccc3cccnc23)cc1OC`, the pIC50 is 5.04. On the same count and under the same terms, then `O=C(Sc1cccc2cccnc12)c1ccccc1Cl`, with 5.24.

Take `COC(=O)[C@H](C)NC(=O)c1ccnc2c(SSc3cccc4c(C(=O)N[C@@H](C)C(=O)OC)ccnc34)cccc12`: the pIC50 is 5.36. With `COc1cccc(C(=O)Sc2cccc3cccnc23)c1`, the pIC50 is 5.83. For the compound `C[C@@H](C(=O)O)N(C)C(=O)c1cnc2c(SSc3cccc4cc(C(=O)N(C)[C@@H](C)C(=O)O)cnc34)cccc2c1`, the pIC50 is 5.23. Take `O=C(Sc1cccc2cccnc12)c1c(Cl)cccc1Cl`: the pIC50 was 5.83. On to `O=C(Sc1cccc2cccnc12)c1ccccc1Br`, for which the pIC50 was 5.42. On to `O=C(O)[C@@H]1CCCN1C(=O)c1cnc2c(SSc3cccc4cc(C(=O)N5CCC[C@H]5C(=O)O)cnc34)cccc2c1`, for which the pIC50 is 5.77. Turning to `COc1ccccc1C(=O)Sc1cccc2cccnc12`, the pIC50 is 5.34 and 5.68. Take `COC(=O)C[C@H](NC(=O)c1cnc2c(SSc3cccc4cc(C(=O)N[C@@H](CC(=O)OC)C(=O)OC)cnc34)cccc2c1)C(=O)OC`: the pIC50 was 5.46. In the case of `O=C(Sc1cccc2cccnc12)c1cccc(Cl)c1`, the pIC50 was 5.93. With `COC(=O)[C@@H](NC(=O)c1cnc2c(SSc3cccc4cc(C(=O)N[C@H](C(=O)OC)C(C)C)cnc34)cccc2c1)C(C)C`, the pIC50 is 5.40. Turning to `COC(=O)c1cnc2c(SSc3cccc4cc(C(=O)OC)cnc34)cccc2c1`, the pIC50 was 5.47. As for `COC(=O)[C@H](C)NC(=O)c1cnc2c(SSc3cccc4cc(C(=O)N[C@@H](C)C(=O)OC)cnc34)cccc2c1`, the pIC50 was 5.30. Take `CC(C)Cc1ccc(C(=O)Sc2cccc3cccnc23)cc1`: the pIC50 was 5.61. Still for that read-out and setting: as for `O=C(Sc1cccc2cccnc12)c1ccccc1[N+](=O)[O-]`, the figure is 5.28. `O=C(Sc1cccc2cccnc12)c1cccc(C(F)(F)F)c1`: the pIC50 was 5.07.

In the case of `O=C(Sc1cccc2cccnc12)c1ccccc1OC(F)(F)F`, the pIC50 is 5.39. On the same count and under the same terms, as for `N#Cc1cccc(C(=O)Sc2cccc3cccnc23)c1`, the figure is 4.80; as for `COc1ccc(C(=O)Sc2cccc3cccnc23)cc1F`, 5.45; as for `CC[C@@H](C)[C@H](NC(=O)c1cnc2c(SSc3cccc4cc(C(=O)N[C@H](C(=O)OC)[C@@H](C)CC)cnc34)cccc2c1)C(=O)OC`, 5.75. The same measure, in the same setting: then `COC(=O)[C@@H]1CCCN1C(=O)c1cnc2c(SSc3cccc4cc(C(=O)N5CCC[C@H]5C(=O)OC)cnc34)cccc2c1`, with 5.47; and `CC(C)(C)OC(=O)CCNC(=O)c1cnc2c(SSc3cccc4cc(C(=O)NCCC(=O)OC(C)(C)C)cnc34)cccc2c1`, with 5.31; and `O=C(Sc1cccc2cccnc12)C1CCCCC1`, with 6.18. Regarding `COC(=O)[C@H](C)N(C)C(=O)c1cnc2c(SSc3cccc4cc(C(=O)N(C)[C@@H](C)C(=O)OC)cnc34)cccc2c1`, the pIC50 is 5.37.

Take `Cc1cccc(C(=O)Sc2cccc3cccnc23)c1`: the pIC50 is 5.90.

Take `O=C(O)c1cnc2c(SSc3cccc4cc(C(=O)O)cnc34)cccc2c1`: the pIC50 was 5.90. As to `O=C(Sc1cccc2cccnc12)c1ccccc1F`, the IC50 was > 99 µM (inactive).

Consider `Cc1ccc(C(=O)Sc2cccc3cccnc23)cc1`, for which the pIC50 was 4.84.

With `Cc1ccccc1C(=O)Sc1cccc2cccnc12`, the pIC50 was 4.96.

In the case of `CCCc1ccc(C(=O)Sc2cccc3cccnc23)cc1`, the pIC50 is 5.58.
